Several values for one entry are separate records, joined by “and”; a condition that tells them apart may be missing. Identical values can stand only once.
How the values were obtained:
[1] = system: DPH1 gene; experiment: PM resistant colony count after DPH1 gene editing (PAC cassette integration); format: cell-based, human; conditions: for # of PM resistant colonies (40,000 seeded cells): MCF7, individual samples A-D; for # of PM resistant colonies (mean of the samples) / # of PM resistant colonies: TF eff. = 38%; for # of PM resistant colonies: DPH1 assay (integr. vs. k.o.), individual samples
Protocol: MCF7 cells (Brooks, et al. 1973) were originally obtained from ATCC (subsequently propagated in an in-house cell bank) and maintained in RPMI […] medium supplemented with 10% FCS, 2 mM L-Glutamine and penicillin/streptomycin at 37° C. and 85% humidity. For transfection of plasmids harboring gene-editing modules, 3,000,000 cells were seeded in a 10 cm diameter culture dish and cultivated at 37° C. and humidified 5% CO2. 24 h after seeding, cells were transfected with 20 μg total DNA using JetPEI (Polyplus) according to the manufacturer's protocol but with an N/P ratio of 6:1. Transfection efficiency was determined after 24 h by flow cytometry (FACS Calibur, BD biosciences) of cells that were transfected with a modified eGFP expression plasmid (Zhang, et al. 1996).
Plasmids encoding CRISPR/Cas9 gene-editing entities (i.e. knock-out and integration systems) against Dph1 (gRNA target sequence: […] (SEQ ID NO: 01) derived from RefSeq: NM_001383) and Dph2 (gRNA target sequence: […] (SEQ ID NO: 02) derived from RefSeq: NM_001039589, NM_001384), and scrambled control (gRNA sequence: […] (SEQ ID NO: 03)) were obtained from OriGene. This system comprises one plasmid expressing a ˜100 nt gRNA under control of a U6 promoter as well as Cas9 nuclease under control of a CMV promoter and a Donor plasmid with a promoter-less GFP/PM expression cassette flanked by homologous arms to the target gene (Dph1 or Dph2). Additional Dph1 gRNA sequence variants of different sizes (OriGene) […]
MCF7 cells which have all chromosomal copies of DPH1 or DPH2 inactivated are resistant to diphtheria toxin (Stahl, et al. 2015). Thus, occurrence and frequency of toxin resistant cells/colonies upon CRISPR/Cas inflicted gene inactivation provides a measure for efficiency of inactivation of all gene copies. Therefore, MCF/cells were transfected as described in Example 1 with (i) a GFP expression plasmid as transfection control, (ii) the CRISPR/Cas9 Dph1 or Dph2 knock-out/integration system and (iii) knock-out/integration entities containing a scrambled gRNA to determine Cas9 independent integration frequencies. After determination of transfection efficiency, cells were seeded in 6-well plates. […] RPMI medium was exchanged by RPMI medium containing DT or PM or both toxins 3 days after cell seeding. Exchange of medium was repeated every 2-3 days until all dead cells were removed from the plates and actively growing colonies could be detected via microscopic inspection. Thereafter (between day 12 and day 14 after start of toxin exposure), cells were washed 3 times with PBS and subsequently stained with ice cold methylene blue (0.2% in 50% EtOH). Methylene blue solution was subsequently removed and the plates were carefully washed under running water. Finally, cell colonies were counted under the microscope with a 5 mm grid foil.
CRISPR/Cas module for targeted integration contains a puromycin (PM) resistance gene expression cassette without promoter to avoid transient expression. Thus, detection of integration of recombinant sequences into the genome was detected by determining sensitivity of cells towards PM. A concentration of […] PM (which quantitatively eliminates wildtype MCF7 cells) was applied to select MCF7 cells with stably integrated expression cassettes. PM-resistant colonies selected with the same procedure as described above for the DT selection and visualized and quantified (between 12 and 14 days after start of selection) in the same manner as described above for toxin resistant colonies. Number of PM resistant colonies obtained with non-target guide sequences (scrambled gRNA, FIG. 1) reflect the nonspecific integration background. Increase in colonies (above nonspecific background) obtained with target-gene gRNAs which are PM-resistant but toxin sensitive reflect integration into just one target allele, leaving the other dph1 or dph2 allele unaffected. […]

[2] = system: DPH1 gene; experiment: DT + PM double resistant colony count after DPH1 gene editing (integration with inactivation); format: cell-based, human; conditions: for # of DT + PM resistant colonies (40,000 seeded cells) / # of PM + DT resistant colonies (40,000 seeded cells): MCF7, individual samples A-D
[3] = DPH1 (gRNA length), TF eff. = 31%
[4] = DPH1 (gRNA length), TF eff. = 31%, listed as 20 mer Dph1 CRISPR Cas9 gRNA
[5] = DPH1 assay (integr. vs. (integr. + k.o.)), TF eff. = 67*%
[6] = DPH1 assay (integr. vs. (integr. + k.o.)), TF eff. = 67*%, listed as Dph1 CRISPR Cas9 gRNA
[7] = DPH1 assay editing entities, MCF-7, individual replicates, TF eff. = 33%

**Q.** “20 mer SpCas9 DPH1 gRNA: Plasmids encoding SpCas9 and Dph1 gRNA (target CAGGGCGGCCGAGACGGCCC, SEQ ID NO: 01) plus PAC donor plasmid, OriGene” was tested. Which “# of PM resistant colonies (40,000 seeded cells)” value [1, 3] did it give?
**A.** 16 (2×) and 20 and 8

**Q.** And the “# of PM resistant colonies (40,000 seeded cells)” value [1, 4]?
**A.** 16 (2×) and 20 and 8

**Q.** What about the “# of PM resistant colonies (40,000 seeded cells) (unheaded second sub-column: mean)” value [1, 3] of the same substance?
**A.** 15

**Q.** What about the “# of PM resistant colonies (40,000 seeded cells)” value [1, 5] of the same substance?
**A.** 25 (2×) and 22 and 24

**Q.** What about the “# of PM resistant colonies (40,000 seeded cells)” value [1, 6] of the same substance?
**A.** 25 (2×) and 22 and 24

**Q.** And the “# of PM resistant colonies (40,000 seeded cells) (unheaded second sub-column: mean)” value [1, 5]?
**A.** 24

**Q.** What about the “# of PM resistant colonies (mean of the samples)” value ([1]; DPH1 assay (integr. vs. k.o.), 10,000 seeded cells) of the same substance?
**A.** 9

**Q.** And the “# of PM resistant colonies (mean of the samples)” value ([1]; DPH1 assay (integr. vs. k.o.), 20,000 seeded cells)?
**A.** 13

**Q.** And the “# of PM resistant colonies (mean of the samples)” value ([1]; DPH1 assay (integr. vs. k.o.), 40,000 seeded cells)?
**A.** 24

**Q.** What about the “# of PM resistant colonies” value ([1]; MCF7, 10,000 seeded cells) of the same substance?
**A.** 7 and 10 (2×) and 29

**Q.** And the “# of PM resistant colonies” value ([1]; MCF7, 10,000 seeded cells, listed as CRISPR Cas9 Dph1 gRNA)?
**A.** 7 and 10 (2×)

**Q.** And the “# of PM resistant colonies” value ([1]; MCF7, 20,000 seeded cells)?
**A.** 18 and 13 (2×) and 6

**Q.** And the “# of PM resistant colonies” value ([1]; MCF7, 20,000 seeded cells, listed as CRISPR Cas9 Dph1 gRNA)?
**A.** 18 and 13 (2×) and 6

**Q.** What about the “# of PM resistant colonies” value ([1]; MCF7, 40,000 seeded cells) of the same substance?
**A.** 29 and 12 and 30 and 24

**Q.** And the “# of PM resistant colonies” value ([1]; MCF7, 40,000 seeded cells, listed as CRISPR Cas9 Dph1 gRNA)?
**A.** 29 and 12 and 30 and 24

**Q.** And the “# of PM resistant colonies (80,000 seeded cells)” value [1, 7]?
**A.** 14 and 11 and 9 and 10

**Q.** And the “integration efficacy in dependence on gRNA length” value ([1]; PMr colonies)?
**A.** Targeted integration clearly above background was observed

**Q.** And the “# of DT + PM resistant colonies (40,000 seeded cells)” value [2, 3]?
**A.** 6 and 5 and 7 (2×)

**Q.** What about the “# of DT + PM resistant colonies (40,000 seeded cells)” value [2, 4] of the same substance?
**A.** 6 and 5 and 7 (2×)

**Q.** And the “# of DT + PM resistant colonies (40,000 seeded cells) (unheaded second sub-column: mean)” value [2, 3]?
**A.** 6

**Q.** What about the “# of PM + DT resistant colonies (40,000 seeded cells)” value [2, 5] of the same substance?
**A.** 15 and 13 and 11 and 12

**Q.** And the “# of PM + DT resistant colonies (40,000 seeded cells)” value [2, 6]?
**A.** 15 and 13 and 11 and 12

**Q.** What about the “# of PM + DT resistant colonies (40,000 seeded cells) (unheaded second sub-column: mean)” value [2, 5] of the same substance?
**A.** 13

**Q.** What about the “# of DT + PM resistant colonies (80,000 seeded cells)” value [2, 7] of the same substance?
**A.** 5 and 4 and 3

— patent publication US20250250559A1, “METHOD TO ANALYZE AND OPTIMIZE GENE EDITING MODULES AND DELIVERY APPROACHES” (Hoffmann-La Roche Inc., priority 2016, published 2025)
